Reference: PubChem BioAssay (NCI)
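Here, GI50 denotes the concentration required for 50% inhibition of growth. The concentration for full growth arrest is given as TGI.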

Key:
Assay in all cases: DTP human tumour cell line panel, 384-well format
PC-3 prostate = test system: PC-3 prostate
SK-MEL-5 melanoma = test system: SK-MEL-5 melanoma
RXF 393 renal = test system: RXF 393 renal
SK-OV-3 ovarian = test system: SK-OV-3 ovarian
CAKI-1 renal = test system: CAKI-1 renal
HCT-116 colon = test system: HCT-116 colon
CCRF-CEM leukemia = test system: CCRF-CEM leukemia
SF-295 CNS = test system: SF-295 CNS
IGROV1 ovarian = test system: IGROV1 ovarian
SK-MEL-28 melanoma = test system: SK-MEL-28 melanoma
OVCAR-8 ovarian = test system: OVCAR-8 ovarian
A498 renal = test system: A498 renal
HT29 colon = test system: HT29 colon

`C=CC(=O)Nc1cccc(Oc2nc(Nc3ccc(N4CCN(C)CC4)cc3)nc3ccsc23)c1` was tested, and the GI50 (PC-3 prostate) was 1.7 µM, the TGI (PC-3 prostate) was 3.12 µM and the GI50 (SK-MEL-5 melanoma) was 1.84 µM. It also gave a TGI (SK-MEL-5 melanoma) of 3.25 µM, a GI50 (RXF 393 renal) of 1.23 µM and a TGI (RXF 393 renal) of 2.49 µM. The GI50 (SK-OV-3 ovarian) was 1.57 µM, the TGI (SK-OV-3 ovarian) was 4.19 µM and the GI50 (CAKI-1 renal) was 0.833 µM. It also gave a TGI (CAKI-1 renal) of 2.15 µM, a GI50 (HCT-116 colon) of 1.68 µM and a TGI (HCT-116 colon) of 3.09 µM. For the same molecule, the GI50 (CCRF-CEM leukemia) was 1.5 µM, the TGI (CCRF-CEM leukemia) was 2.84 µM and the GI50 (SF-295 CNS) was 5.01 µM. For the same molecule, the TGI (SF-295 CNS) was 15.7 µM, the GI50 (IGROV1 ovarian) was 1.06 µM and the TGI (IGROV1 ovarian) was 2.26 µM. The GI50 (SK-MEL-28 melanoma) was 1.74 µM, the TGI (SK-MEL-28 melanoma) was 3.14 µM and the GI50 (OVCAR-8 ovarian) was 1.59 µM. The TGI (OVCAR-8 ovarian) was 3 µM, the GI50 (A498 renal) was 1.22 µM and the TGI (A498 renal) was 2.49 µM. It also gave a GI50 (HT29 colon) of 1.74 µM and a TGI (HT29 colon) of 3.16 µM.
